US12077503B2, “Substituted cyclic amides and their use as herbicides” (FMC CORPORATION, priority 2015, dated 2024)

What was measured:
Assay type in all cases: in vivo
Kochia (Kochia scoparia) [1] = assay: Test A preemergence; conditions: Bassia scoparia, pre-emergence, 240 h, 0 to 100 scale where 0 is no effect and 100 is complete control, read-out: Kochia plant response rating
Procedure, shortened: (§1)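 Preemergence soil spray on seeded pots or post-emergence spray on 1–2 leaf plants, in loam–sand blend. Greenhouse ~10 d. Visual rating 0–100 against untreated plants.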

[2] = test system: barnyardgrass (Echinochloa crus-galli); assay: Test A preemergence; conditions: Echinochloa crus-galli, pre-emergence, 240 h, 0 to 100 scale where 0 is no effect and 100 is complete control, read-out: Barnyardgrass plant response rating
Procedure, shortened: as §1

[3] = test system: giant foxtail (Setaria faberii); assay: Test A preemergence; conditions: Setaria faberi, pre-emergence, 240 h, 0 to 100 scale where 0 is no effect and 100 is complete control, read-out: Foxtail, Giant plant response rating
Procedure, shortened: as §1

[4] = test system: pigweed (Amaranthus retroflexus); assay: Test A preemergence; conditions: Amaranthus retroflexus, pre-emergence, 240 h, 0 to 100 scale where 0 is no effect and 100 is complete control, read-out: Pigweed plant response rating
[5] = test system: ragweed (common ragweed, Ambrosia elatior); assay: Test A preemergence; conditions: Ambrosia artemisiifolia, pre-emergence, 240 h, 0 to 100 scale where 0 is no effect and 100 is complete control, read-out: Ragweed plant response rating
Procedure, shortened: as §1

[6] = test system: ryegrass, Italian (Italian ryegrass, Lolium multiflorum); assay: Test A preemergence; conditions: Lolium multiflorum, pre-emergence, 240 h, 0 to 100 scale where 0 is no effect and 100 is complete control, read-out: Ryegrass, Italian plant response rating
Procedure, shortened: as §1

[7] = test system: Galium (catchweed bedstraw, Galium aparine); assay: Test A postemergence; conditions: Galium, post-emergence, 240 h
Procedure, shortened: as §1

Kochia (Kochia scoparia) [8] = assay: Test A postemergence; conditions: Bassia scoparia, post-emergence, 240 h
Procedure, shortened: as §1

[9] = test system: blackgrass (Alopecurus myosuroides); assay: Test A postemergence; conditions: Alopecurus myosuroides, post-emergence, 240 h
Procedure, shortened: as §1

corn (Zea mays) = assay: Test A postemergence; conditions: Zea mays, post-emergence, 240 h
Procedure, shortened: as §1

[10] = test system: giant foxtail (Setaria faberii); assay: Test A postemergence; conditions: Setaria faberi, post-emergence, 240 h
Procedure, shortened: as §1

[11] = test system: pigweed (Amaranthus retroflexus); assay: Test A postemergence; conditions: Amaranthus retroflexus, post-emergence, 240 h
Procedure, shortened: as §1

[12] = test system: ragweed (common ragweed, Ambrosia elatior); assay: Test A postemergence; conditions: Ambrosia artemisiifolia, post-emergence, 240 h
Procedure, shortened: as §1

[13] = test system: ryegrass, Italian (Italian ryegrass, Lolium multiflorum); assay: Test A postemergence; conditions: Lolium multiflorum, post-emergence, 240 h
Procedure, shortened: as §1

[14] = test system: wheat (Triticum aestivum); assay: Test A postemergence; conditions: Triticum aestivum, post-emergence, 240 h
Procedure, shortened: as §1

[15] = test system: barnyardgrass (Echinochloa crus-galli); assay: Test B flooded paddy test; conditions: Echinochloa crus-galli, 250 g ai/ha, Flood; 0 to 100 scale where 0 is no effect and 100 is complete control; read-out: Barnyardgrass plant response rating
Procedure, shortened: (§2)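 Rating scale 0–100 (visual, vs untreated controls) after a 13–15 d greenhouse period; application to the flood layer, 3 cm above soil and maintained; plants at 2-leaf stage when treated.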

[16] = test system: ducksalad (Heteranthera limosa); assay: Test B flooded paddy test; conditions: Heteranthera limosa, 250 g ai/ha, Flood; 0 to 100 scale where 0 is no effect and 100 is complete control; read-out: Ducksalad plant response rating
Procedure, shortened: as §2

rice (Oryra sativa) = assay: Test B flooded paddy test; conditions: Oryza sativa, 250 g ai/ha, Flood; 0 to 100 scale where 0 is no effect and 100 is complete control; read-out: Rice plant response rating
Procedure, shortened: as §2

[17] = test system: sedge, umbrella (small-flower umbrella sedge, Cyperus difformis); assay: Test B flooded paddy test; conditions: Cyperus difformis, 250 g ai/ha, Flood; 0 to 100 scale where 0 is no effect and 100 is complete control; read-out: Sedge, Umbrella plant response rating
Procedure, shortened: as §2

[18] = 125 g ai/ha, preemergence, approx. 10 d

CN1C[C@H](c2cc(C(F)F)cs2)[C@@H](C(=O)Nc2cccc(F)n2)C1=O [Compound 1090] gave a pest or weed control at 31 g/ha (Kochia (Kochia scoparia) [1]; 31 g ai/ha, Preemergence) of 20%, a pest or weed control at 125 g/ha (Kochia (Kochia scoparia) [1]; [18]) of 30% and a pest or weed control at 31 g/ha ([2]; 31 g ai/ha, Preemergence) of 10%. For the same compound, the pest or weed control at 125 g/ha [2, 18] was 90%, the pest or weed control at 31 g/ha ([3]; 31 g ai/ha, Preemergence) was 60% and the pest or weed control at 125 g/ha [3, 18] was 100%. The pest or weed control at 31 g/ha ([4]; 31 g ai/ha, Preemergence) was 0%, the pest or weed control at 125 g/ha [4, 18] was 0% and the pest or weed control at 31 g/ha ([5]; 31 g ai/ha, Preemergence) was 0%. For the same compound, the pest or weed control at 125 g/ha [5, 18] was 0%, the pest or weed control at 31 g/ha ([6]; 31 g ai/ha, Preemergence) was 30% and the pest or weed control at 125 g/ha [6, 18] was 0%. For the same compound, the pest or weed control at 125 g/ha ([7]; 125 g ai/ha, postemergence, visual injury on 0 to 100 scale (0 no effect, 100 complete control), approx. 10 d, read-out: Galium plant response rating) was 30%, the pest or weed control at 31 g/ha ([7]; Postemergence, 31 g ai/ha, visual injury after approx. 10 d, 0 to 100 scale, 0 no effect, 100 complete control, read-out: Plant response rating, Galium) was 30% and the pest or weed control at 125 g/ha (Kochia (Kochia scoparia) [8]; 125 g ai/ha, postemergence, visual injury on 0 to 100 scale (0 no effect, 100 complete control), approx. 10 d, read-out: Kochia plant response rating) was 30%. For the same compound, the pest or weed control at 31 g/ha (Kochia (Kochia scoparia) [8]; Postemergence, 31 g ai/ha, visual injury after approx. 10 d, 0 to 100 scale, 0 no effect, 100 complete control, read-out: Plant response rating, Kochia) was 0%, the pest or weed control at 125 g/ha ([9]; 125 g ai/ha, postemergence, visual injury on 0 to 100 scale (0 no effect, 100 complete control), approx. 10 d, read-out: Blackgrass plant response rating) was 20% and the pest or weed control at 31 g/ha ([9]; Postemergence, 31 g ai/ha, visual injury after approx. 10 d, 0 to 100 scale, 0 no effect, 100 complete control, read-out: Plant response rating, Blackgrass) was 0%. The plant injury at 125 g/ha (corn (Zea mays); 125 g ai/ha, postemergence, visual injury on 0 to 100 scale (0 no effect, 100 complete control), approx. 10 d, read-out: Corn plant response rating) was 20%, the Corn plant response rating (crop injury, 0 = no effect, 100 = complete kill) at 31 g/ha (corn (Zea mays); Postemergence, 31 g ai/ha, visual injury after approx. 10 d, 0 to 100 scale, 0 no effect, 100 complete control) was 0% and the pest or weed control at 125 g/ha ([10]; 125 g ai/ha, postemergence, visual injury on 0 to 100 scale (0 no effect, 100 complete control), approx. 10 d, read-out: Foxtail, Giant plant response rating) was 80%. The pest or weed control at 31 g/ha ([10]; Postemergence, 31 g ai/ha, visual injury after approx. 10 d, 0 to 100 scale, 0 no effect, 100 complete control, read-out: Plant response rating, Foxtail, Giant) was 20%, the pest or weed control at 125 g/ha ([11]; 125 g ai/ha, postemergence, visual injury on 0 to 100 scale (0 no effect, 100 complete control), approx. 10 d, read-out: Pigweed plant response rating) was 0% and the pest or weed control at 31 g/ha ([11]; Postemergence, 31 g ai/ha, visual injury after approx. 10 d, 0 to 100 scale, 0 no effect, 100 complete control, read-out: Plant response rating, Pigweed) was 0%. It also gave a pest or weed control at 125 g/ha ([12]; 125 g ai/ha, postemergence, visual injury on 0 to 100 scale (0 no effect, 100 complete control), approx. 10 d, read-out: Ragweed plant response rating) of 0%, a pest or weed control at 31 g/ha ([12]; Postemergence, 31 g ai/ha, visual injury after approx. 10 d, 0 to 100 scale, 0 no effect, 100 complete control, read-out: Plant response rating, Ragweed) of 0% and a pest or weed control at 125 g/ha ([13]; 125 g ai/ha, postemergence, visual injury on 0 to 100 scale (0 no effect, 100 complete control), approx. 10 d, read-out: Ryegrass, Italian plant response rating) of 0%. It also gave a pest or weed control at 31 g/ha ([13]; Postemergence, 31 g ai/ha, visual injury after approx. 10 d, 0 to 100 scale, 0 no effect, 100 complete control, read-out: Plant response rating, Ryegrass, Italian) of 0%, a plant injury at 125 g/ha ([14]; 125 g ai/ha, postemergence, visual injury on 0 to 100 scale (0 no effect, 100 complete control), approx. 10 d, read-out: Wheat plant response rating) of 20% and a plant injury at 31 g/ha ([14]; Postemergence, 31 g ai/ha, visual injury after approx. 10 d, 0 to 100 scale, 0 no effect, 100 complete control, read-out: Plant response rating, Wheat) of 0%. For the same compound, the pest or weed control at 250 g/ha [15] was 80%, the pest or weed control at 250 g/ha [16] was 95% and the pest or weed control at 250 g/ha (rice (Oryra sativa)) was 0%. The pest or weed control at 250 g/ha [17] was 0%.
